≈ marks a conversion by molar mass, not a printed value.
Experiments:
[1] = tested on: C. albicans 3153A planktonic cultures; assay: Killing of exponentially growing and stationary planktonic cultures, CFU determination; type: cell-based, Candida albicans; conditions: planktonic cultures in RPMI, antifungal 24 hrs
Procedure: (§1) Biofilms of C. albicans 3153A cells were cultured in wells of microtiter plates in RPMI medium for 48 hrs (Ramage et al., Antimicrob. Agents Chemother. 45:2475-2479 (2001)), washed twice in PBS, pH 7.4, to remove nonadherent cells, and resuspended in 100 μl RPMI growth medium containing antifungals. After 24 hrs of antifungal challenge, the biofilms and cultures were washed twice, resuspended in 100 μl PBS, scraped, transferred into eppendorf tubes, vortexed and plated for colony forming unit (CFU) determination on YPD medium. […] This could lead to an underestimation of surviving cells by a factor of ≦10. In parallel, exponentially growing and stationary planktonic cultures were grown for 48 hrs in RPMI medium, and then antifungals were added for 24 hrs. The experiment was performed in triplicate and error bars indicate standard deviation (see FIGS. 1A-1B).

[2] = tested on: Biofilm-Deficient Strains of C. albicans; assay: Persister formation by biofilm-deficient strains (survival to high levels of amphotericin B); type: cell-based, Candida albicans
Procedure: as §1
Given that persisters appeared only in the biofilm, their formation was dependent on the same genes/pathways that determine biofilm development. A large panel of biofilm-defective mutants was therefore tested for their ability to produce persisters by measuring survival to high levels of amphotericin B. These mutants were able to adhere to the surface of a microtiter plate, making it possible to assay in the biofilm survival protocol described above. All strains appeared to produce essentially normal levels of persisters (Table 1).

[3] = tested on: C. albicans 3153A biofilms; assay: Biofilm killing by antifungals, CFU determination; type: cell-based, Candida albicans; conditions: for killing curve of biofilm: dose-dependent, 24 hrs challenge
Procedure: as §1
Biofilms were grown in microtiter plates and were treated with amphotericin B or chlorhexidine (100 μg/ml) for 24 hrs, after which they were washed and vortexed, as discussed above. The cells were then reinoculated into microtiter plates to form new biofilms. The new biofilms, derived from persisters that survived drug treatment, were again treated with the antifungal agents (as discussed above), and the procedure was repeated a total of 3 times. Biofilms were sampled for CFU determination before and after antifungal treatment. The experiment was performed in triplicate.
Tests were also performed to determine if yeast persisters were multidrug tolerant. Mature, 48 hr biofilms of C. albicans were challenged for 24 hrs with 100 μg/ml amphotericin B, 100 μg/ml chlorhexidine, or a combination of these two antifungal agents, using the same procedures discussed above. Biofilms were washed and sampled for CFU determination before and after antifungal treatment, as discussed above.

C. albicans = assay: MIC; type: cell-based; conditions: Candida albicans

C[C@@H]1[C@H](O)[C@@H](C)/C=C/C=C/C=C/C=C/C=C/C=C/C=C/[C@H](O[C@@H]2O[C@H](C)[C@@H](O)[C@H](N)[C@@H]2O)C[C@@H]2O[C@](O)(C[C@@H](O)C[C@@H](O)[C@H](O)CC[C@@H](O)C[C@@H](O)CC(=O)O[C@H]1C)C[C@H](O)[C@H]2C(=O)O [amphotericin B] was tested, and the “killing of exponentially growing and stationary cells” value [1] was “effectively killed”, the Persisters ([2]; strain 3153A, control wild type) was “+++^1 (+++ indicates 1-2% survival)” and the Persisters ([2]; strain CAI4) was “+^3 (+ indicates 0.05-0.1% survival)”. The Persisters ([2]; strain CJN698 (bcr1 with BCR1)) was “++ (++ indicates 0.1-1% survival)”, the Persisters ([2]; strain CJN702 (bcr1)) was “++ (++ indicates 0.1-1% survival)” and the Persisters ([2]; strain CKY136 (efg1)) was “+++ (+++ indicates 1-2% survival)”. For the same molecule, the Persisters ([2]; strain CKY138 (efg1 cph1Δ)) was “++ (++ indicates 0.1-1% survival)”, the Persisters ([2]; strain CKY357 (mkc1Δ)) was “++^2 (++ indicates 0.1-1% survival)” and the Persisters ([2]; strain DAY185) was “++ (++ indicates 0.1-1% survival)”. For the same molecule, the Persisters ([2]; strain DAY286) was “++ (++ indicates 0.1-1% survival)”, the Persisters ([2]; strain GKO9 (mds3)) was “++ (++ indicates 0.1-1% survival)” and the Persisters ([2]; strain GKO443 (suv3)) was “++ (++ indicates 0.1-1% survival)”. For the same molecule, the Persisters ([2]; strain GKO798 (kem1)) was “++ (++ indicates 0.1-1% survival)”, the Persisters ([2]; strain GKO814 (nup85)) was “++ (++ indicates 0.1-1% survival)” and the Persisters ([2]; strain MC191 (flo8/flo8)) was “+++ (+++ indicates 1-2% survival)”. For the same molecule, the Persisters ([2]; strain MC195 (flo8 with FLO8-2)) was “+ (+ indicates 0.05-0.1% survival)”, the Persisters ([2]; strain MC245 (flo8/FLO8)) was “++ (++ indicates 0.1-1% survival)” and the “cells invulnerable (persisters) in biofilm” value ([3]; biofilm, higher concentrations of the drug, 24 hrs) was “More than 1%”. For the same molecule, the “killing curve of biofilm” value ([3]; CFU) was “biphasic killing”.

[H]/N=C(\N/C(=N/[H])NCCCCCCNC(=N)NC(=N)Nc1ccc(Cl)cc1)Nc1ccc(Cl)cc1 [chlorhexidine] was tested, and the “killing of exponentially growing and stationary cells” value [1] was “eliminated”, the “concentration above which killing of persisters was observed” value ([3]; biofilm, 24 hrs) was “above 100 μg/ml” and the “concentration at which the biofilm was completely sterilized” value ([3]; biofilm, 24 hrs) was 1000 µg/mL. The “killing curve of biofilm” value ([3]; CFU) was “biphasic killing” and the MIC (C. albicans) was 4 µg/mL (≈ 7.91 µM).

In the case of CC[C@H](C)C[C@H](C)CCCCCCCCC(=O)N[C@H]1C[C@@H](O)[C@@H](NCCN)NC(=O)[C@@H]2[C@@H](O)CCN2C(=O)[C@H]([C@H](O)CCN)NC(=O)[C@H]([C@H](O)[C@@H](O)c2ccc(O)cc2)NC(=O)[C@@H]2C[C@@H](O)CN2C(=O)[C@H]([C@@H](C)O)NC1=O [Caspofungin, caspofungin], the killing of biofilms ([3]; C. albicans 3153A biofilms, 24 hrs antifungal challenge, CFU) is reported as ≤ 10 fold.

Source: patent publication US20120252820A1, “METHODS OF TREATING FUNGAL INFECTIONS” (NORTHEASTERN UNIVERSITY, priority 2008, published 2012)
